These results are taken from ChEMBL document CHEMBL1157815, “Antiproliferative activity of withanolides against human breast cancer cell lines” (2010).

Holding throughout (format): functional
The subject of one experiment is SK-BR-3. Nature of the experiment: Antiproliferative activity against estrogen receptor deficient human SKBR3 cells after 48 hrs by SRB assay. The settings on record: SK-BR-3, 48 h.
Experiment [1] in a line: Antiproliferative activity against human MCF7/BUS cells expressing estrogen receptor after 48 hrs by SRB assay.
For a further experiment, the system named is MDA-MB-231. Nature of the experiment: Antiproliferative activity against estrogen receptor deficient human MDA-MB-231 cells after 48 hrs by SRB assay. The note with it: MDA-MB-231, 48 h.
The next experiment relates to T47D. As to the kind of experiment: Antiproliferative activity against human T47D cells expressing estrogen receptor after 48 hrs by SRB assay.
A further experiment relates to MCF7. As to the kind of experiment: Antiproliferative activity against human MCF7 cells expressing estrogen receptor after 48 hrs by SRB assay. The note with it: MCF7, 48 h.

Molecules are shown by their SMILES.

`CC1=C(C)C(=O)O[C@@H]([C@H]2CO[C@@]3(O)C[C@H]4[C@@H](C[C@H]5O[C@]56CCCC(=O)[C@]46C)[C@@H]4CC[C@]2(O)[C@]43C)C1` [JABOROSALACTONE 39]: the concentration for 50% growth inhibition (GI50) in the experiment with SK-BR-3 is 34 µM; in experiment [1], 29 µM; in the experiment on MDA-MB-231, 35 µM; with T47D, 38 µM; with MCF7, 25 µM.

With `CC1=C(C)[C@H]([C@H]2O[C@@]3(O)C[C@H]4[C@@H](C[C@@H](O)[C@@]5(Cl)CC=CC(=O)[C@]45C)[C@@H]4CC[C@@](O)([C@@H]2C)[C@]43C)OC1=O` [JABOROSALACTONE 42], the GI50 was found to be 2.5 µM in the experiment with SK-BR-3; 2.6 µM in experiment [1]; 3.2 µM with MDA-MB-231; 3.5 µM with T47D; 2.4 µM in the experiment with MCF7.

As to `C[C@@H](c1cc(O)c2c(c1)CC[C@H]1[C@H]2C[C@@H]2O[C@@]23CC=CC(=O)[C@]13C)[C@@H]1C[C@@H]2O[C@@H]2[C@H](O)O1` [SALPICHROLIDE G], the GI50 with SK-BR-3 came out at 3.4 µM; in experiment [1], 5.7 µM; in the experiment on MDA-MB-231, 14 µM; in the experiment on T47D, 14 µM; with MCF7, 5.1 µM.

For `CC1=C(C)[C@]2(OC1=O)C(=O)C(C)=C1CC[C@H]3[C@@H]4C[C@H]5O[C@]56CC=CC(=O)[C@]6(C)[C@H]4C[C@@]2(O)[C@]13C` [JABOROSALACTONE 1], the concentration for 50% growth inhibition (GI50) in the experiment on SK-BR-3 was 2 µM; in experiment [1] it was 3.3 µM; with MDA-MB-231, 2.5 µM; in the experiment on T47D, 3.4 µM; in the experiment with MCF7, 3.2 µM.

For `C[C@@H](C1=CC(=O)[C@H]2[C@@H]3C[C@H]4O[C@]45CC=CC(=O)[C@]5(C)[C@H]3CC[C@]12C)C1C[C@]2(C)O[C@]2(C)[C@H](O)O1` (stereo not given in full) [SALPICHROLIDE D], the GI50 with SK-BR-3 is 21 µM; in experiment [1] it was 13 µM; in the experiment on MDA-MB-231, 21 µM; in the experiment with T47D it was 17 µM; with MCF7, 22 µM.

Consider `CC1=C(C)C(=O)O[C@@H]([C@](C)(O)[C@]2(O)CC[C@@]3(O)[C@@H]4C[C@H]5O[C@]56CC=CC(=O)[C@]6(C)[C@H]4CC[C@]23C)C1` [WITHANOLIDE E], for which the GI50 with SK-BR-3 was 0.71 µM; in experiment [1] it was 0.42 µM; in the experiment with MDA-MB-231, 0.24 µM; in the experiment on T47D it was 0.16 µM; in the experiment on MCF7, 0.31 µM.

Turning to `CC1=C(C)C(=O)O[C@]2(C1)O[C@@]1(O)C[C@H]3[C@@H](C[C@H]4O[C@]45CC=CC(=O)[C@]35C)[C@@H]3CC[C@@](O)([C@@H]2C)[C@]31C` [JABOROSALACTONE 46], the GI50 in the experiment on SK-BR-3 was determined as 2.5 µM; in experiment [1], 2.9 µM; in the experiment with MDA-MB-231, 3.5 µM; with T47D, 3.7 µM; with MCF7, 2.8 µM.

Regarding `CO[C@@]12C[C@@H]3c4c(O)cccc4[C@H](O)C[C@H]3[C@@H]3CC[C@@](O)([C@H](C)[C@@H]([C@@H]4OC(=O)C(C)=C4C)O1)[C@]32C`, the GI50 (with SK-BR-3; in experiment [1]; in the experiment on MDA-MB-231; in the experiment with T47D; with MCF7) was greater than 100 µM in each case.

In the case of `C[C@@H]1[C@@H]([C@@H]2O[C@H](O)[C@@]3(C)O[C@@]23C)O[C@@]2(O)C[C@H]3[C@@H](C[C@H]4O[C@]45CC=CC(=O)[C@]35C)[C@@H]3CC[C@]1(O)[C@]32C` [JABOROSALACTOL 24], the 50% growth inhibitory concentration (GI50) with SK-BR-3 came to 2.3 µM; in experiment [1] it was 2.6 µM; with MDA-MB-231 it was 8.7 µM; in the experiment on T47D, 6.5 µM; with MCF7, 3.6 µM.

Consider `O=c1[nH]cc(F)c(=O)[nH]1` [FLUOROURACIL], for which the concentration for 50% growth inhibition (GI50) in the experiment with SK-BR-3 stood at 3 µM; in experiment [1] it was 6.2 µM; in the experiment with MDA-MB-231, 54 µM; in the experiment on T47D, 47 µM; in the experiment on MCF7, 8.3 µM.

Consider `C[C@@H]1[C@@H]([C@@H]2O[C@H](O)[C@@]3(C)O[C@@]23C)O[C@@]2(O)C[C@H]3[C@@H](CC=C4CC=CC(=O)[C@@]43C)[C@@H]3CC[C@]1(O)[C@]32C` [JABOROSALACTOL], for which the GI50 in the experiment with SK-BR-3 came to 18 µM; in experiment [1] it was 18 µM; with MDA-MB-231, 19 µM; in the experiment with T47D, 30 µM; in the experiment with MCF7, 14 µM.

Take `CC1=C(C)C(=O)O[C@@H]([C@](C)(O)[C@]2(O)CC[C@@]3(O)[C@@H]4C[C@H]5O[C@]56[C@@H](O)C=CC(=O)[C@]6(C)[C@H]4CC[C@]23C)C1`: the GI50 in the experiment on SK-BR-3 came out at 1.7 µM; in experiment [1] it was 1.1 µM; in the experiment with MDA-MB-231 it was 2.1 µM; in the experiment on T47D, 2.2 µM; in the experiment with MCF7, 1 µM.

For `CO[C@@]12C[C@H]3[C@@H](C[C@H]4O[C@]45CC=CC(=O)[C@]35C)[C@@H]3CC[C@@](O)([C@@H]([C@H]4CC(C)=C(C)C(=O)O4)CO1)[C@]32C` [12-O-METHYLJABOROSALACTONE 38], the GI50 amounted to 2 µM with SK-BR-3; 2.7 µM in experiment [1]; 2.8 µM in the experiment on MDA-MB-231; 3.9 µM in the experiment with T47D; 2.9 µM with MCF7.

As for `CC1=C(C)[C@H]([C@H]2O[C@@]3(O)C[C@H]4[C@@H](C[C@H]5O[C@]56CC=CC(=O)[C@]46C)[C@@H]4CC[C@@](O)([C@@H]2C)[C@]43C)OC1=O` [TRECHONOLIDE A], the GI50 in the experiment on SK-BR-3 stood at 1.9 µM; in experiment [1] it was 3.1 µM; in the experiment on MDA-MB-231, 6.3 µM; in the experiment on T47D, 4.3 µM; in the experiment with MCF7, 3.9 µM.

In the case of `C[C@]12CC[C@H]3C(=C1[C@H]1C[C@@]2(O)[C@](C)([C@H]2C[C@]4(C)O[C@]4(C)[C@H](O)O2)C1)C[C@@H](O)[C@@]1(O)CC=CC(=O)[C@]31C` [JABOROSALACTOL20], the 50% growth inhibitory concentration (GI50) (in the experiment on SK-BR-3; in experiment [1]; in the experiment with MDA-MB-231; in the experiment on T47D; with MCF7) was greater than 100 µM each time.

For the molecule `CCO[C@@]12C[C@H]3[C@@H](C[C@@H](O)[C@@]4(Cl)CC=CC(=O)[C@]34C)[C@@H]3CC[C@@](O)([C@H](C)[C@@H]([C@@H]4OC(=O)C(C)=C4C)O1)[C@]32C` [12-O-ETHYLJABOROSALACTONE 42], the GI50 is 2.5 µM in the experiment on SK-BR-3; 3 µM in experiment [1]; 3.7 µM in the experiment on MDA-MB-231; 3.9 µM in the experiment on T47D; 3 µM with MCF7.

On to `CCO[C@@]12C[C@H]3[C@@H](C[C@@H](O)[C@@]4(Cl)CC=CC(=O)[C@]34C)[C@@H]3CC[C@@](O)([C@H](C)[C@@H]([C@@H]4O[C@H](O)[C@@]5(C)O[C@@]45C)O1)[C@]32C`, for which the 50% growth inhibitory concentration (GI50) in the experiment with SK-BR-3 is 3.4 µM; in experiment [1] it was 5.1 µM; with MDA-MB-231, 10 µM; in the experiment with T47D it was 13 µM; with MCF7, 3.9 µM.

Take `CC[C@@]1(O)C(=O)OCc2c1cc1n(c2=O)Cc2cc3ccccc3nc2-1` [CAMPTOTHECIN]: the GI50 with SK-BR-3 was found to be 0.15 µM; in experiment [1], 0.21 µM; in the experiment on MDA-MB-231, 1.3 µM; with T47D it was 2 µM; in the experiment on MCF7, 0.28 µM.

For the molecule `CC1=C(C)[C@H]([C@H]2O[C@@]3(O)C[C@@H]4c5c(O)cccc5[C@H](O)C[C@H]4[C@@H]4CC[C@@](O)([C@@H]2C)[C@]43C)OC1=O` [JABOROSALACTONE 45], the GI50 (in the experiment on SK-BR-3; in experiment [1]; in the experiment with MDA-MB-231; in the experiment with T47D; in the experiment with MCF7) was greater than 100 µM each time.

Turning to `CC1=C(C)[C@H]([C@H]2O[C@@]3(O)C[C@H]4[C@@H](C[C@@H](O)[C@@]5(O)CC=CC(=O)[C@]45C)[C@@H]4CC[C@@](O)([C@@H]2C)[C@]43C)OC1=O` [JABOROTETROL], the concentration for 50% growth inhibition (GI50) (in the experiment with SK-BR-3; in experiment [1]; with MDA-MB-231; in the experiment with T47D; with MCF7) was greater than 100 µM each time.

On to `CC1=C(C)[C@]2(OC1=O)[C@H](O)[C@@H](C)[C@]1(O)CC[C@H]3[C@@H]4CC=C5CC=CC(=O)[C@]5(C)[C@H]4C[C@@]2(O)[C@@]31C` [JABOROSALACTONE P], for which the concentration for 50% growth inhibition (GI50) with SK-BR-3 is 29 µM; in experiment [1], 33 µM; in the experiment on MDA-MB-231, 49 µM; in the experiment on T47D, 61 µM; with MCF7, 35 µM.

On to `CC1=C(C)C(=O)O[C@@H]([C@H]2CO[C@@]3(O)C[C@H]4[C@@H](C[C@H]5O[C@]56CC=CC(=O)[C@]46C)[C@@H]4CC[C@]2(O)[C@]43C)C1` [JABOROSALACTONE], for which the concentration for 50% growth inhibition (GI50) in the experiment with SK-BR-3 amounted to 2.6 µM; in experiment [1] it was 2.8 µM; with MDA-MB-231, 3.4 µM; in the experiment with T47D, 4.1 µM; in the experiment on MCF7 it was 2.9 µM.
